Experimental data from the NIST ThermoML archive (doi:10.1016/j.jct.2005.08.013).
Several values for one entry are separate records, joined by “and”; a condition that tells them apart may be missing. Identical values can stand only once. ± gives the expanded uncertainty stated by the source.

Details: Calculated from knudsen effusion weight loss

c1ccc(-c2cc(-c3ccccc3)cc(-c3ccccc3)c2)cc1 [1,3,5-triphenylbenzene]
Crystal
Details | vapor or sublimation pressure
407.36 K | 0.00014 ± 7e-06 kPa and 0.000141 ± 7e-06 kPa and 0.000139 ± 7e-06 kPa
409.3 K | 0.000173 ± 9e-06 kPa and 0.000166 ± 8e-06 kPa and 0.000164 ± 8e-06 kPa
411.3 K | 0.000215 ± 1.1e-05 kPa and 0.00021 ± 1.1e-05 kPa and 0.000206 ± 1e-05 kPa
413.23 K | 0.000251 ± 1.3e-05 kPa and 0.000256 ± 1.3e-05 kPa
415.35 K | 0.000317 ± 1.6e-05 kPa and 0.000316 ± 1.6e-05 kPa
416.86 K | 0.000361 ± 1.8e-05 kPa and 0.000348 ± 1.7e-05 kPa
417.22 K | 0.00037 ± 1.9e-05 kPa and 0.000371 ± 1.9e-05 kPa
419.24 K | 0.000454 ± 2.3e-05 kPa and 0.00047 ± 2.4e-05 kPa
421.36 K | 0.000542 ± 2.7e-05 kPa and 0.000563 ± 2.8e-05 kPa and 0.000568 ± 2.8e-05 kPa
423.29 K | 0.000672 ± 3.4e-05 kPa and 0.000668 ± 3.3e-05 kPa and 0.000649 ± 3.2e-05 kPa
425.26 K | 0.000796 ± 4e-05 kPa and 0.000784 ± 3.9e-05 kPa
427.36 K | 0.000966 ± 4.8e-05 kPa and 0.000984 ± 4.9e-05 kPa and 0.001 ± 5e-05 kPa
429.29 K | 0.00117 ± 0.00012 kPa and 0.0012 ± 0.00012 kPa

O=C1c2ccccc2-c2cccc3cccc1c23 [7H-benz[de]anthracen-7-one]
Crystal
Details | vapor or sublimation pressure
390.31 K | 0.000152 ± 8e-06 kPa and 0.000149 ± 7e-06 kPa
392.23 K | 0.000179 ± 9e-06 kPa and 0.000177 ± 9e-06 kPa
394.57 K | 0.000234 ± 1.2e-05 kPa and 0.000221 ± 1.1e-05 kPa
396.35 K | 0.000263 ± 1.3e-05 kPa and 0.000262 ± 1.3e-05 kPa and 0.00026 ± 1.3e-05 kPa
398.22 K | 0.000323 ± 1.6e-05 kPa and 0.000325 ± 1.6e-05 kPa
400.41 K | 0.000394 ± 2e-05 kPa and 0.000381 ± 1.9e-05 kPa
402.19 K | 0.000471 ± 2.4e-05 kPa and 0.000453 ± 2.3e-05 kPa
404.34 K | 0.00057 ± 2.9e-05 kPa and 0.000564 ± 2.8e-05 kPa and 0.000565 ± 2.8e-05 kPa
406.35 K | 0.000686 ± 3.4e-05 kPa and 0.000679 ± 3.4e-05 kPa and 0.00068 ± 3.4e-05 kPa
408.35 K | 0.00081 ± 4.1e-05 kPa and 0.000796 ± 4e-05 kPa and 0.0008 ± 4e-05 kPa
410.23 K | 0.000962 ± 4.8e-05 kPa and 0.000954 ± 4.8e-05 kPa and 0.000926 ± 4.6e-05 kPa

c1ccc2cc3ccccc3cc2c1 [anthracene]
Crystal
Details | vapor or sublimation pressure
340.41 K | 0.000143 ± 7e-06 kPa and 0.000144 ± 7e-06 kPa and 0.000141 ± 7e-06 kPa
342.25 K | 0.000172 ± 9e-06 kPa and 0.000173 ± 9e-06 kPa and 0.000167 ± 8e-06 kPa
344.06 K | 0.000211 ± 1.1e-05 kPa and 0.000206 ± 1e-05 kPa
346.4 K | 0.000258 ± 1.3e-05 kPa and 0.000262 ± 1.3e-05 kPa and 0.000263 ± 1.3e-05 kPa
348.15 K | 0.000306 ± 1.5e-05 kPa and 0.000304 ± 1.5e-05 kPa and 0.000308 ± 1.5e-05 kPa
350.15 K | 0.000375 ± 1.9e-05 kPa and 0.000371 ± 1.9e-05 kPa and 0.000376 ± 1.9e-05 kPa
352.39 K | 0.000464 ± 2.3e-05 kPa and 0.000459 ± 2.3e-05 kPa and 0.000458 ± 2.3e-05 kPa
354.06 K | 0.00055 ± 2.8e-05 kPa and 0.000548 ± 2.7e-05 kPa and 0.000554 ± 2.8e-05 kPa
356.2 K | 0.000673 ± 3.4e-05 kPa and 0.000679 ± 3.4e-05 kPa and 0.000658 ± 3.3e-05 kPa
358.22 K | 0.000815 ± 4.1e-05 kPa and 0.000821 ± 4.1e-05 kPa and 0.00081 ± 4.1e-05 kPa
360.38 K | 0.00101 ± 0.0001 kPa and 0.00098 ± 4.9e-05 kPa

O=C(O)c1ccccc1 [benzoic acid]
Crystal
Details | vapor or sublimation pressure
299.33 K | 0.000134 ± 7e-06 kPa and 0.000131 ± 7e-06 kPa
301.04 K | 0.000162 ± 8e-06 kPa and 0.00016 ± 8e-06 kPa and 0.000155 ± 8e-06 kPa
303.16 K | 0.000203 ± 1e-05 kPa and 0.000201 ± 1e-05 kPa and 0.00021 ± 1.1e-05 kPa
305.24 K | 0.000271 ± 1.4e-05 kPa and 0.000265 ± 1.3e-05 kPa and 0.000261 ± 1.3e-05 kPa
307.13 K | 0.000332 ± 1.7e-05 kPa and 0.000326 ± 1.6e-05 kPa and 0.000323 ± 1.6e-05 kPa
309.25 K | 0.000414 ± 2.1e-05 kPa and 0.000408 ± 2e-05 kPa and 0.00042 ± 2.1e-05 kPa
311.3 K | 0.000525 ± 2.6e-05 kPa and 0.000512 ± 2.6e-05 kPa and 0.000524 ± 2.6e-05 kPa
313.2 K | 0.000643 ± 3.2e-05 kPa and 0.000622 ± 3.1e-05 kPa and 0.000647 ± 3.2e-05 kPa
315.27 K | 0.000815 ± 4.1e-05 kPa and 0.000799 ± 4e-05 kPa and 0.00083 ± 4.2e-05 kPa
317.32 K | 0.00105 ± 0.00011 kPa and 0.00102 ± 0.0001 kPa and 0.00101 ± 0.0001 kPa

c1ccc2c(c1)ccc1ccccc12 [phenanthrene]
Crystal 2
Details | vapor or sublimation pressure
313.46 K | 0.000123 ± 6e-06 kPa and 0.000124 ± 6e-06 kPa
315.48 K | 0.000151 ± 8e-06 kPa and 0.000155 ± 8e-06 kPa and 0.000156 ± 8e-06 kPa
317.41 K | 0.000185 ± 9e-06 kPa and 0.000191 ± 1e-05 kPa and 0.000193 ± 1e-05 kPa
319.47 K | 0.000238 ± 1.2e-05 kPa and 0.000239 ± 1.2e-05 kPa and 0.000235 ± 1.2e-05 kPa
321.48 K | 0.000292 ± 1.5e-05 kPa and 0.000293 ± 1.5e-05 kPa and 0.000296 ± 1.5e-05 kPa
323.16 K | 0.000343 ± 1.7e-05 kPa and 0.000352 ± 1.8e-05 kPa
325.46 K | 0.000436 ± 2.2e-05 kPa and 0.000446 ± 2.2e-05 kPa and 0.000453 ± 2.3e-05 kPa
327.47 K | 0.000543 ± 2.7e-05 kPa and 0.000544 ± 2.7e-05 kPa and 0.00055 ± 2.8e-05 kPa
329.47 K | 0.00067 ± 3.4e-05 kPa and 0.000675 ± 3.4e-05 kPa and 0.000678 ± 3.4e-05 kPa
331.42 K | 0.000814 ± 4.1e-05 kPa and 0.000825 ± 4.1e-05 kPa and 0.000834 ± 4.2e-05 kPa
333.16 K | 0.001 ± 5e-05 kPa and 0.00101 ± 0.0001 kPa
